Legend:
[1] = Open-label absolute bioavailability and pharmacokinetic study of intranasal ketamine in healthy volunteers; type: in vivo, human; conditions: hydro-alcoholic composition, minimum-maximum
Method: This was an open-label study in 25 healthy volunteers. Subjects received single doses of ketamine by intravenous (IV) injection (20 mg), intramuscular (IM) injection (20 mg), or intranasal (IN) administration (20 mg, 40 mg and 80 mg).
Blood samples for the measurement of plasma concentrations of (R)- and (S)-ketamine and (R)- and (S)-norketamine were collected pre-dose and at 0.033, 0.083, 0.167, 0.25, 0.333, 0.5, 0.75, 1, 1.25, 2, 2.5, 3, 4, 6, 8, 12, 16, and 24 hours post-dose for each study period.
All estimates for the parent and metabolite were consistent within each formulation or dose for the racemate, (R)-, and (S)-enantiomers. After IN administration, the estimates were slightly higher for the metabolite than the parent.

[2] = acidic pH near 4.5
Excerpt: A Buffer may be used to control the pH of the nasal spray solution at, or near 4.5. […] Also, the local pH value inside the nasal cavity directly influences the rate and extent of drug absorption. […] Additionally, maintaining pH at or above 4.0 helps to reduce local nasal tract irritation. The buffer is optional.

Compound	AUC(0-1 hr) ([1]; dose 20 mg)	AUC(0-4 hr) ([1]; dose 20 mg)	Tmax ([1]; dose 20 mg) [min]	AUC(0-1 hr) ([1]; dose 40 mg)	AUC(0-4 hr) ([1]; dose 40 mg)	Tmax ([1]; dose 40 mg) [min]	AUC(0-1 hr) ([1]; dose 10 mg)	AUC(0-4 hr) ([1]; dose 10 mg)	Tmax ([1]; dose 10 mg) [min]	stability of solutions [2]
CNC1(c2ccccc2Cl)CCCCC1=O (racemic) [(RS)-Ketamine, 2-(2-chlorophenyl)-2-(methylamino)-cyclohexanone]	28.7-127 hr′ ng/mL	60.0-209 hr′ ng/mL	4.98 to 30	71.4-225 hr′ ng/mL	160-433 hr′ ng/mL	10 to 30	–	–	–	–
CN[C@@]1(c2ccccc2Cl)CCCCC1=O [(R)-Ketamine]	40.5-129 hr′ ng/mL	93.0-251 hr′ ng/mL	–	–	–	–	15.9-70.8 hr′ ng/mL	33.6-118 hr′ ng/mL	–	–
CN[C@]1(c2ccccc2Cl)CCCCC1=O [(S)-Ketamine]	30.9-96.7 hr′ ng/mL	66.9-181 hr′ ng/mL	10 to 30	–	–	–	12.8-55.8 hr′ ng/mL	26.4-90.4 hr′ ng/mL	5 to 20	–
CNC1(c2ccccc2Cl)CCCCC1=O.Cl (centres unmarked) [Es/ketamine HCl]	–	–	–	–	–	–	–	–	–	better stability

— US20260130845A1, “KETAMINE NASAL SPRAY FORMULATION AND METHODS OF USE” (INESKET LLC, priority 2024, published 2026)
